Laboratory results reported in patent US9522124B2, “Methods for treating Alzheimer's disease” (Wisconsin Alumni Research Foundation, priority 2011, dated 2016).

Columns and labels:
Aβ = assay: ELISA determination of secreted Aβ in conditioned media of H4 cells; assay type: cell-based, human; conditions: 10 μM, 48 hours
Procedure: For Aβ determinations in the conditioned media, H4 cells were plated in 6-well Petri dishes. When 80-90% confluent, cells were washed in PBS and incubated in 1 ml of fresh medium for 48 hr. Secreted Aβ was determined by standard sandwich ELISA as described before (Costantini et al., 2007; Costantini et al., 2006; Jonas et al., 2008; Jonas et al., 2010; Ko and Puglielli, 2009; Pehar et al., 2010). For each sample, the levels of Aβ40, Aβ42, and Aβtotal were quantified as triplicate based upon standard curves run (on every ELISA plate) and then expressed as pmol Aβ/mg of protein. Aβ42 was constantly found to be ˜25% of total Aβ values.

BACE1 = assay: Western blot assessment of BACE1 levels in H4 cell lysates; assay type: cell-based, human; conditions: H4 cells, 10 μM, 48 hours
Procedure: (§1) Western blotting was performed on a 4-12% Bis-Tris SDS-PAGE system (NuPAGE; Invitrogen, Carlsbad, Calif., USA) as described previously (Costantini et al., 2006; Jonas et al., 2008; Jonas et al., 2010; Ko and Puglielli, 2007; Ko and Puglielli, 2009; Pehar et al., 2010). The following antibodies were used in this study: anti-acetylated lysine (monoclonal; cat. no. ab409; Abcam, Cambridge, Mass., USA); anti-BACE1 (polyclonal; cat. no. ab2077; Abcam); anti-Myc (monoclonal; cat. no. sc-40; santa cruz, Santa Cruz, Calif., USA); anti-ATases/NAT8 (polyclonal; cat. no. AP4957c; Abgent, San Diego, Calif., USA); anti-actin (monoclonal; cat. no. A1978; Sigma, St Louis, Mo., USA); anti-C99 (monoclonal; cat. no. M066-3; MBL, Woburn, Mass., USA); anti-acetylated H3 (polyclonal; cat. no. 06-599, Millipore, Billerica, Mass.); anti-acetylated H4 (polyclonal; cat. no. 06-866, Millipore, Billerica, Mass.); anti-αPCNA (polyclonal; cat. no. AP2835b, Abgent, San Diego, Calif., USA).
Samples were imaged with classical chemiluminescence and with the LiCor Odyssey Infrared Imaging System (LI-COR Biosciences, Lincoln, Nebr., USA). For chemiluminescent detection, HRP-conjugated anti-mouse or anti-rabbit secondary antibodies were used at 1:6000 dilution in 3% BSA/TBST (GE Healthcare). Detection was performed with either Lumiglo (KPL) or ECL Plus (GE Healthcare). For infrared imaging, goat anti-rabbit Alexa Fluor 680-conjugated secondary antibodies were used.
To assess their biological effects, we treated human neuroglioma (H4) cells with 10 μM of both compounds. […] This might reflect different kinetics of inhibition as well as different IC50s (see FIG. 2). Alternatively, it might also be explained by different cell-permeability properties. In fact, the cLog P for compound 9 and 19 is 5.03 and 3.19, respectively. The cLog P (or partition coefficient) is an indication of partition properties of a compound between hydrophobic and hydrophilic compartments. Higher values indicate preferential distribution in hydrophobic environments and, as such, increased permeability across biological membranes.

ATase1 and ATase2 [1] = assay: In vitro acetyltransferase assay, structure-activity of derivatives of compound 9 and 19 (Tables 3, 4); assay type: biochemical, human; conditions: refers to Table 3 / Table 4
Procedure: (§2) The acetyl:CoA lysine acetyltransferase activity of ATase1 and ATase2 was assayed as described before (Ko and Puglielli, 2009). Briefly, we adapted a commercially available fluorescent kit (cat. no. 10006515, Cayman Chemicals) as follows: as source of the enzymatic activity, we used affinity purified ATase1-myc and ATase2-myc at the final concentration of 300 ng/μl; as donor of the acetyl group, we used acetyl-CoA at the final concentration of 12.5 μM. […] The acetyltransferase assay was performed as recommended by the manufacturer.
(§3) We previously described a fluorescent assay that is able to assess the acetylCoA:lysine acetyltransferase activity of ATase1 and ATase2 in vitro (Ko and Puglielli, 2009). The assay employs affinity purified ATase1 or ATase2 (as enzymes), acetyl-CoA (as donor of the acetyl group) and a recombinant peptide corresponding to the N-terminal tail of the histone protein H3 (as acceptor of the acetyl group). The H3 peptide was preferred to affinity purified BACE1 because it is acetylated in a conformation independent manner ((Ko and Puglielli, 2009) and data not shown) and, therefore, more suitable for large screening approaches. To identify possible ATase1 and ATase2 inhibitors we used the assay to screen a single library of 14,400 small molecules/compounds. The screen identified 186 small molecules/compounds able to inhibit ATase1, ATase2 or both in vitro. […] Each compound was then screened for cytotoxic properties by using multi-plex cytotoxicity assays on a variety of cell lines, including human neuroblastoma and human neuroglioma. […] The above 30 compounds were individually screened on human neuroglioma (H4) cells for their ability to reduce the levels of BACE1 and the generation of Aβ. Two compounds, 9 and 19, produced significant changes and were object of further study.
Next we decided to analyze structure-activity properties of both compounds. In the case of compound 9, we designed 13 different chemical derivatives and assessed IC50s in vitro.

ATase2 = target: T1, ATase2 (Homo sapiens, UniProt Q9UHE5); assay: AcetylCoA:lysine acetyltransferase assay (fluorescent, affinity purified ATase2-myc); assay type: biochemical
T1 construct: myc (C); made in house
T1 sequence (Q9UHE5 1-227): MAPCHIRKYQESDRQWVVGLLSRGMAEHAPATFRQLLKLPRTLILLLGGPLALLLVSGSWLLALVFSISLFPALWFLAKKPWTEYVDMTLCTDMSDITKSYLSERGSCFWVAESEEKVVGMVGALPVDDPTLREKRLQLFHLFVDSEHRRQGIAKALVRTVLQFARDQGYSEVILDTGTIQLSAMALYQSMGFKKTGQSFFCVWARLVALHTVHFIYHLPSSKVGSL
Procedure: as §2
(§4) For kinetic analysis of ATase1 and ATase2 inhibition, the assays were performed in the presence of the indicated concentrations of compound 9, 19 and 9.I. The concentration of acetyl-CoA was varied from […]. Values were plotted as a Lineweaver-Burk plot using Graphpad Prism software.
as §3

C99 = assay: Western blot assessment of C99 levels in H4 cell lysates; assay type: cell-based, human; conditions: H4 cells, 48 hours
Procedure: FIG. 7. Compound 9 and 19 decrease levels and activity of BACE1. H4 cells were treated with either compound 9 or 19 for 48 hours prior to Western blot assessment of BACE1 and C99 levels in cell lysates. C99 is the immediate product of BACE1-mediated cleavage of APP.
as §1

[2] = test system: cytosolic and nuclear proteins, histone proteins H3 and H4; assay: Lysine acetylation profile of cytosolic and nuclear proteins in H4 cells; assay type: cell-based, human; conditions: 48 hours
Procedure: FIG. 8. […] (A and B) H4 cells were treated with either compound 9 or 19 for 48 hours prior to Western blot assessment of the acetylation profile of cytosolic (A) and nuclear (B) proteins. (C) The nuclear fraction used in (B) was also used to assess the lysine acetylation profile of the histone proteins H3 and H4.
as §1
Cytosolic and nuclear extracts were prepared as described before (Ko and Puglielli, 2007). For cytosolic extracts, cells were homogenized in homogenization buffer containing 25 mM Tris-HCl, pH 7.4, 0.5 mM EDTA, 0.5 mM EGTA, and a protease inhibitor mixture. The homogenates were centrifuged at 14,000×g for 15 min, and supernatants were collected as cytosolic proteins.
For nuclear extracts cells were scraped into ice-cold phosphate-buffered saline and collected by centrifugation. The cell pellets were suspended in 3 volumes of lysis buffer (20 mM Hepes, pH 7.9, 10 mM KCl, 1 mM EDTA, pH 8.0, 0.2% Nonidet P-40, 10% glycerol, and a protease inhibitor mixture) followed by incubation on ice for 10 min. Cell suspensions were gently pipetted up and down; the lysates were then centrifuged at 14,000×g for 5 min at 4° C. to obtain nuclear pellets. Nuclear pellets were washed twice with cell lysis buffer (lacking Nonidet P-40 and protease inhibitor mixture) and then resuspended in 2 volumes of nuclear extract buffer (20 mM Hepes, pH 7.9, 10 mM KCl, 1 mM EDTA, pH 8.0, 420 mM NaCl, 20% glycerol, and a protease inhibitor mixture). The nuclei were extracted by incubation at 4° C. for 30 min with gentle agitation followed by centrifugation at 14,000×g at 4° C. for 5 min; the resultant supernatant fraction was used as a nuclear extract.

ATase1 = target: T2, ATase1 (Homo sapiens, UniProt Q9UHF3); assay: AcetylCoA:lysine acetyltransferase assay (fluorescent, affinity purified ATase1-myc); assay type: biochemical
T2 construct: myc (C); made in house
T2 sequence (Q9UHF3 1-227): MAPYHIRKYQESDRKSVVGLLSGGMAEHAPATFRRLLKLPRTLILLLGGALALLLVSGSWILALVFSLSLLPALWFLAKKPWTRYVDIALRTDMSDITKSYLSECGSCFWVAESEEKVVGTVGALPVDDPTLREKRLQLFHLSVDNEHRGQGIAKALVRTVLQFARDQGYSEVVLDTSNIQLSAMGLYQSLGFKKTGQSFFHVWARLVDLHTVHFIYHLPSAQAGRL
Procedure: as §2, §4, §3

[3] = test system: histone acetyltransferase p300/CBP; assay: In vitro activity of histone acetyltransferase p300/CBP; assay type: biochemical; conditions: data not shown
ATase1 and ATase2 [4] = assay: Western blot assessment of endogenous ATase1/ATase2 levels in H4 cells; assay type: cell-based, human; conditions: 10 μM, 48 hours
Procedure: FIG. 4. Compound 9 causes degradation of the ATases. (A) H4 cells were treated with the indicated compounds (10 μM) for 48 hours prior to Western blot assessment of BACE1 and ATase1/ATase2 levels in total cell lysates. (B, D and E) Quantification of changes are expressed as percent of control (no treatment) and are the average (n=3)±S.D.*, P<0.05; **, P<0.005; ^#, P<0.0005. (C) ELISA determination of secreted Aβ in the conditioned media of the experiment described in (A). Results are expressed as percent of control (no treatment) and are the average (n=3)±S.D.*, P<0.05; **, P<0.005. (F) CHO cells over-expressing either ATase1 or ATase2 were treated with compound 9 (10 μM) for 48 hours prior to Western blot assessment of ATase1 and ATase2 levels in total cell lysates.
FIG. 13. Compound 9 decreases the levels of both ATase1 and ATase2. (A) H4 cells were treated with the increasing concentrations of compound 9 for 48 hours prior to Western blot assessment of BACE1 and ATase1/ATase2 levels in total cell lysates. (B-D) Quantification of changes are expressed as percent of control (no treatment) and are the average (n=3)±S.D.*, P<0.05; **, P<0.005; ^#, P<0.0005.
as §1, with “AP2835b, Abgent, San Diego, Calif., USA).” left out

[5] = Lineweaver-Burk plot, acetyl-CoA varied

Compound | inhibitory activity of derivative relative to parent compound (in words) (ATase1 and ATase2 [1]) | levels of Aβ in the conditioned media / generation of Aβ (Aβ) | levels of BACE1 (BACE1) | also measured
CCN(CC)c1ccc2nc3c4ccccc4c(=O)cc-3oc2c1 [Compound 9.B] | – | only 9.I retained significant ability | only 9.I retained significant ability | –
N=c1c(Cl)c2oc3cc(N)ccc3nc-2c2ccccc12 [Compound 9.A] | – | only 9.I retained significant ability | only 9.I retained significant ability | –
CCOc1ccccc1NC1=C(Cl)C(=O)c2ccccc2C1=O [Compound 19] | – | decreased levels of Aβ | significant reduction | IC50 (ATase2): 18.2 µM; kinetics of inhibition for acetyl-CoA, ATase2 (ATase2; [5]): non-competitive inhibition; cellular levels of C99 (C99): decreased cellular levels of C99; acetylation profile of cytosolic and nuclear proteins [2]: Neither compound 9 nor compound 19 produced significant changes; acetylation profile of the histone protein H3 and H4 ([2]; nuclear fraction): slight reduction; IC50 (ATase1): ~13.3 µM; kinetics of inhibition for acetyl-CoA, ATase1 (ATase1; [5]): non-competitive inhibition; inhibition of in vitro activity of p300/CBP [3]: neither compound inhibited
O=c1ccc2nc3ccc(O)cc3oc-2c1 [Compound 9.I] | retained inhibitory properties | retained significant ability | retained significant ability | endogenous levels of ATase1 and ATase2 (ATase1 and ATase2 [4]): significantly down-regulate

Now from value to compound, other results behind:

inhibitory activity of derivative relative to parent compound (in words) (ATase1 and ATase2 [1]) | Compound | levels of Aβ in the conditioned media / generation of Aβ (Aβ) | levels of BACE1 (BACE1) | also measured
decreased activity | O=C1C(Cl)=C2Nc3ccccc3OC2(O)c2ccccc21 (stereo not drawn) [Compound 9.E] | only 9.I retained significant ability | only 9.I retained significant ability | –
highest activity | Oc1c(Cl)c2nc3ccccc3nc2c2ccccc12 [Compound 9.C] | only 9.I retained significant ability | only 9.I retained significant ability | –
